Experimental data: EP4703356A1, “SALT OF PIPERIDYLINDOLE COMPOUND AND PREPARATION METHOD THEREFOR” (Shanghai Hansoh Biomedical Co., Ltd., priority 2023, dated 2024)
pIC50, pKd: −log10 of the molar value. Like-named read-outs stand apart in the source and are kept apart here.

Columns and labels:
[1] = target: T1, Recombinant human factor B catalytic domain (Homo sapiens, UniProt P00751); experiment: TR-FRET factor B binding assay
[2] = target: T1, Recombinant human factor B catalytic domain; experiment: Target residence time of factor B inhibitors by surface plasmon resonance (SPR); settings: for t1/2: binding half-life, t1/2 = ln2/koff; for residence time: read-out: Residence time (s)
[3] = Pharmacokinetic study in rat eyes; format: in vivo, brown Norway rats; settings: Brown Norway, 2 mg/kg, 2 mpk PO; for half-life: in vivo
Procedure: Three-month-old brown Norway rats were orally gavaged with the example compound as a suspension in 2 equivalents of 1 N HCl + 30% PEG300 + 50% (20% Cremophor EL aqueous solution). At 0.25, 0.5, 1, 6, and 24 hours post-dosing, ocular tissues and plasma were collected from both eyes of the rats at respective time points. The ocular tissues collected comprised retina and the posterior eyecup (RPE/choroid and posterior sclera). Tissues were diluted with phosphate-buffered saline containing 10% acetonitrile, followed by homogenization and centrifugation prior to analysis. At each time point, test article concentrations in plasma and eye homogenate supernatants were measured in four individual retinal samples, four individual posterior eyecup samples and two individual plasma samples by using HPLC-MS/MS. Chromatographic separation was performed on a Waters BEH C18 column (2.1 × 50 mm, 1.7 µm) (MAC-MOD Analytical, Chadds-Ford, PA) with a gradient elution method using water and acetonitrile, both containing 0.025% formic acid-1 M NH4OAc. Mass spectrometry measurements in positive electrospray ionization were performed to quantify mass transitions using [M+H]+ as the precursor ion on an API6500 triple quadrupole mass spectrograph (Sciex, Framingham, MA). The relevant pharmacokinetic parameters were estimated using the non-compartmental method in WinNonlin (Enterprise, version 8.2). Table 3: Rat PK study results (2 mpk PO)

[4] = tested on: AP complement activation; experiment: In vivo assessment of AP complement functional activity in mice (LPS-induced, plasma C3b/iC3b/C3c ELISA); design: species or system C57BL/6 mice; settings: LPS 2.5 mg/kg i.p. 7.5 hours before end, compound 20 mg/kg oral 20 hours before end
Procedure: 20 hours before the end of the study, female C57BL/6 mice were orally gavaged with the formulation of compound of Example 3 (20 mg/kg, 0.5% (w/v) methylcellulose, 0.5% (v/v) Tween 80). To activate the complement pathway, lipopolysaccharide (LPS) from Salmonella typhimurium (Sigma) was injected intraperitoneally (2.5 mg/kg) 7.5 hours before the end of the study. Control mice received intraperitoneal injections of normal saline and oral gavage administration of vehicles. At the end of the study, plasma samples were collected from the mice. AP complement activation was assessed by measuring plasma C3 cleavage products, C3b/iC3b/C3c, using an ELISA method with rat anti-mouse C3b/iC3b/C3c monoclonal antibodies (clone 2/11, Hycult Biotech, 0.1 µg/well), and a goat anti-rat IgG (whole molecule)-peroxidase (Sigma) diluted in TBST (TBS/0.05% Tween 20). Table 4: Plasma C3b/iC3b/C3c following treatment

[5] = tested on: alternative complement pathway (AP); experiment: Assessment of PD inhibition in rat plasma (ex vivo AP ELISA, MAC deposition on LPS, serum after oral dosing); design: species or system Sprague-Dawley rats; settings: over 24 hours; for inhibition at 2 mg/kg: Rattus norvegicus, rats, oral 2 mg/kg, AP deposition in 50% serum, read-out: Serum PD inhibition (%) over 24 hours (2 mpk)
Procedure: Male Sprague-Dawley rats (n = 3) were orally administered with vehicles (0.5% (w/v) methylcellulose, 0.5% (v/v) Tween 80), compound Iptacopan, or example compound formulations (in 0.5% (w/v) methylcellulose, 0.5% (v/v) Tween 80) at a dose of 2 mg/kg. Rat serum samples were collected at 0.25, 0.5, 1, 2, 4, 6, 8, and 24 hours post-dosing, and stored at -80°C. […] The coated plates were washed with GVB buffer (Complement technology) containing 5 mM MgCl2 and 10 mM EGTA (blocking both classical and lectin pathways). The collected serum samples were diluted by adding an equal volume of GVB buffer containing 10 mM MgCl2 and 20 mM EGTA. For negative controls, serum was diluted with GVB buffer containing 40 mM EDTA (blocking all complement pathways). Aliquots (50 ul) of 50% serum samples were added to the LPS-coated wells. The reaction plate was incubated at 37°C for 20 minutes (rat serum). […] Baseline (EDTA-treated serum) and maximum signal (EGTA-treated serum from vehicle-treated rats) were used to generate a percent inhibition value for each well.
Each data point in FIG. 37 represents the mean AP activity in rat serum. […] Table 5: Rat 24-hour PD study results

[6] = Salt form screening (natural evaporation and reactive crystallisation); format: physicochemical; design: key to PLM/XRPD or slurry solvent: "√" indicates the presence of birefringence phenomenon; "×" indicates the absence of birefringence phenomenon; settings: for PLM/XRPD or slurry solvent: 1:1; for Characterization result: reactive crystallisation, Ethyl acetate, 1:1, stirred room temperature about 24 hours
Procedure: Salt form screening experiments were conducted via the solvent evaporation method. About 10 mg of the free base of Example 3 was weighed into a 2 mL glass vial and dissolved in 100 µL of an organic solvent. A solution of the counterion acid in methanol was added dropwise at a molar ratio of 1:1. The resulting clear solution was allowed to evaporate at room temperature. The obtained solid was first characterised by PLM. If no birefringence was observed, the solids were slurried by adding a solvent. If birefringence was observed, the solids were further characterised by XRPD. Compounds with high crystallinity were selected for characterization by DSC and TGA.
Approximately 10 mg of the free base compound of Example 3 was weighed into a 2 mL glass vial and dissolved in 100 µL of an organic solvent. 22 µL of a solution of the acid in ethyl acetate was slowly added dropwise at a molar ratio of 1 : 1 under stirring. The resulting clear solution was stirred at room temperature for approximately 24 hours. The resulting solid was dried in vacuo at 40°C and characterised by XRPD, DSC and TGA.

[7] = plasma, read-out: Plasma AUC0-last
[8] = retina, read-out: Retina AUC0-last

T1 sequence (P00751 470-764): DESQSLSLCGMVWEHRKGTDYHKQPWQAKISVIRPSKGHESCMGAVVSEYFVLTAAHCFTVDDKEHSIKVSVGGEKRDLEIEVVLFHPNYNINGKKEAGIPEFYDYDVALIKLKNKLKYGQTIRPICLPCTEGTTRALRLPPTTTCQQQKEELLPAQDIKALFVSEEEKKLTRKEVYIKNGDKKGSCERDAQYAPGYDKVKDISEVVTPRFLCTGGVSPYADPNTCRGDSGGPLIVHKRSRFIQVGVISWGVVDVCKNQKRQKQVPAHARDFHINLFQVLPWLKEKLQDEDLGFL

COc1cc(C)c2[nH]ccc2c1CN1CCC2(C[C@H]1c1ccc(C(=O)O)cc1C(F)F)CC(F)(F)C2 [Example 1]
pIC50 [1]: > 8.70 | pKd [2]: 9.11 | t1/2 [2]: 0.8911 h | residence time [2]: 4630 s

COc1cc(C)c2[nH]ccc2c1CN1CCC2(C[C@H]1c1ccc(C(=O)O)cc1C)CC(F)(F)C2 [Example 3, (S)-4-(2,2-difluoro-7-((5-methoxy-7-methyl-1H-indol-4-yl)methyl)-7-azaspiro[3.5]nonan-6-yl)-3-methylbenzoic acid]
AUC(0-t) [3, 7]: 12.7 µM·h | AUC(0-t) [3, 8]: 0.796 µM·h | half-life [3]: 22.2 h | Plasma C3b/iC3b/C3c (1 x 10^6) [4]: 210.25 ^ns 1 x 10^6 | inhibitory effects in the ex vivo PD assay in rats ([5]; 2 mg/kg oral, 50% serum): sustained inhibitory effects | inhibition at 2 mg/kg [5]: 57.5% | Post-slurry PLM/XRPD ([6]; natural evaporation, Acetone, Hydrobromic acid (22 µL), slurried in ethyl acetate): √, crystal form A of hydrobromide | Post-slurry PLM/XRPD ([6]; natural evaporation, Acetone, Hydrochloric acid (22 µL), slurried in ethyl acetate): √, high crystallinity, crystal form A of hydrochloride | Post-slurry PLM/XRPD ([6]; natural evaporation, Acetone, Methanesulphonic acid (22 µL), slurried in ethyl acetate): √, crystal form A of methanesulfonat e | Post-slurry PLM/XRPD ([6]; natural evaporation, Acetone, p-Toluenesulphonic acid (22 µL), slurried in ethyl acetate): √, crystal form A of p-toluenesulfonate | Post-slurry PLM/XRPD ([6]; natural evaporation, Methanol, Hydrochloric acid (22 µL), slurried in 2-methyltetrahydrofuran): √, crystal form B of hydrochloride | PLM/XRPD or slurry solvent ([6]; natural evaporation, solvent Acetone, Hydrobromic acid (22 µL)): ×, ethyl acetate | PLM/XRPD or slurry solvent ([6]; natural evaporation, solvent Acetone, Hydrochloric acid (22 µL)): ×, ethyl acetate | PLM/XRPD or slurry solvent ([6]; natural evaporation, solvent Acetone, Methanesulphonic acid (22 µL)): ×, ethyl acetate | PLM/XRPD or slurry solvent ([6]; natural evaporation, solvent Acetone, p-Toluenesulphonic acid (22 µL)): ×, ethyl acetate | PLM/XRPD or slurry solvent ([6]; natural evaporation, solvent Methanol, Adipic acid (22 µL)): √, crystal form A of adipate | PLM/XRPD or slurry solvent ([6]; natural evaporation, solvent Methanol, Fumaric acid (88 µL)): √, crystal form A of fumarate | PLM/XRPD or slurry solvent ([6]; natural evaporation, solvent Methanol, Hippuric acid (55 µL)): √, crystal form A of hippurate | PLM/XRPD or slurry solvent ([6]; natural evaporation, solvent Methanol, Hydrobromic acid (22 µL)): √, high crystallinity | PLM/XRPD or slurry solvent ([6]; natural evaporation, solvent Methanol, Hydrochloric acid (22 µL)): ×, 2-methyltetrahydrofuran | PLM/XRPD or slurry solvent ([6]; natural evaporation, solvent Methanol, Malonic acid (22 µL)): √, crystal form A of malonate | PLM/XRPD or slurry solvent ([6]; natural evaporation, solvent Methanol, Oxalic acid (22 µL)): √, crystal form A of oxalate | PLM/XRPD or slurry solvent ([6]; natural evaporation, solvent Methanol, Succinic acid (22 µL)): √, crystal form A of succinate | Characterization result ([6]; Hydrobromic acid): Crystal form A of hydrobromide | Characterization result ([6]; Hydrochloric acid): Crystal form A of hydrochloride | Characterization result ([6]; Methanesulphonic acid): Crystal form A of methanesulfonate | PLM/XRPD or slurry solvent ([6]; solvent Ethyl acetate, Hydrobromic acid (22 µL), Clear → Suspension (slurried)): √, crystal form A of hydrobromide | PLM/XRPD or slurry solvent ([6]; solvent Toluene, Hydrobromic acid (22 µL), Clear → Suspension (slurried)): √, crystal form A of hydrobromide | pIC50 [1]: > 8.70 | pKd [2]: 9.77 | t1/2 [2]: 1.188 h | residence time [2]: 6170 s

Cc1cc(C2CC2)c(CN2CCC3(C[C@H]2c2ccc(C(=O)O)cc2)CC(F)(F)C3)c2cc[nH]c12 [Example 2]
pIC50 [1]: > 8.70 | pKd [2]: 9.42 | t1/2 [2]: 1.214 h | residence time [2]: 6310 s

CCO[C@H]1CCN(Cc2c(OC)cc(C)c3[nH]ccc23)[C@H](c2ccc(C(=O)O)cc2)C1 [Iptacopan, reference compound]
AUC(0-t) [3, 7]: 13.5 µM·h | AUC(0-t) [3, 8]: 0.141 µM·h | half-life [3]: 5.3 h | inhibition at 2 mg/kg [5]: -3%
